Converted amounts (≈) assume the structure as drawn. The source made the active and inactive calls. No cut-off for these calls is given here.
Assays:
[1] = test system: Mycobacterium tuberculosis; test: Antimycobacterial activity against extensively drug-resistant Mycobacterium tuberculosis isolate 761 obtained from pus of patient at 100 ug/ml by Bactec MGIT960 modified proportion method; assay type: functional, organism-based
[2] = test system: Mycobacterium tuberculosis; test: Antimycobacterial activity against extensively drug-resistant Mycobacterium tuberculosis isolate 2911 obtained from sputum of patient at 100 ug/ml by Bactec MGIT960 modified proportion method; assay type: functional, organism-based
[3] = test system: Mycobacterium tuberculosis; test: Antimycobacterial activity against extensively drug-resistant Mycobacterium tuberculosis isolate 2301 obtained from sputum of patient at 100 ug/ml by Bactec MGIT960 modified proportion method; assay type: functional, organism-based
[4] = test system: Mycobacterium tuberculosis; test: Antimycobacterial activity against extensively drug-resistant Mycobacterium tuberculosis isolate 625 obtained from sputum of patient at 100 ug/ml by Bactec MGIT960 modified proportion method; assay type: functional, organism-based
[5] = test system: Mycobacterium tuberculosis; test: Antimycobacterial activity against extensively drug-resistant Mycobacterium tuberculosis isolate 2474 obtained from sputum of patient at 100 ug/ml by Bactec MGIT960 modified proportion method; assay type: functional, organism-based
[6] = test system: Mycobacterium tuberculosis; test: Antimycobacterial activity against extensively drug-resistant Mycobacterium tuberculosis isolate 2403 obtained from sputum of patient at 100 ug/ml by Bactec MGIT960 modified proportion method; assay type: functional, organism-based
[7] = test system: Mycobacterium tuberculosis; test: Antimycobacterial activity against extensively drug-resistant Mycobacterium tuberculosis isolate 2911 obtained from sputum of patient at 2 ug/ml by Bactec MGIT960 modified proportion method; assay type: functional, organism-based
[8] = test system: Mycobacterium tuberculosis; test: Antimycobacterial activity against extensively drug-resistant Mycobacterium tuberculosis isolate 761 obtained from pus of patient at 2 ug/ml by Bactec MGIT960 modified proportion method; assay type: functional, organism-based
[9] = test system: Mycobacterium tuberculosis; test: Antimycobacterial activity against extensively drug-resistant Mycobacterium tuberculosis isolate 2403 obtained from sputum of patient at 2 ug/ml by Bactec MGIT960 modified proportion method; assay type: functional, organism-based
[10] = test system: Mycobacterium tuberculosis; test: Antimycobacterial activity against extensively drug-resistant Mycobacterium tuberculosis isolate 2301 obtained from sputum of patient at 2 ug/ml by Bactec MGIT960 modified proportion method; assay type: functional, organism-based
[11] = test system: Mycobacterium tuberculosis; test: Antimycobacterial activity against extensively drug-resistant Mycobacterium tuberculosis H37Rv by CLSI method; assay type: functional
[12] = test system: Mycobacterium tuberculosis; test: Antimycobacterial activity against extensively drug-resistant Mycobacterium tuberculosis isolate 2474 horboring rpoB H526Y, katG D329A/R463L, gyrA D94G/S95T, rrs A1401G by CLSI method; assay type: functional
[13] = test system: Mycobacterium tuberculosis; test: Antimycobacterial activity against extensively drug-resistant Mycobacterium tuberculosis isolate 761 horboring rpoB S531L/Q510P, katG S315T/R463L, gyrA D94N/S95T, rrs G1484T by CLSI method; assay type: functional
[14] = test system: Mycobacterium tuberculosis; test: Antimycobacterial activity against extensively drug-resistant Mycobacterium tuberculosis isolate 625 obtained from sputum of patient at 2 ug/ml by Bactec MGIT960 modified proportion method; assay type: functional, organism-based
[15] = test system: Mycobacterium tuberculosis; test: Antimycobacterial activity against extensively drug-resistant Mycobacterium tuberculosis isolate 625 horboring rpoB S531L/G566R/I569L, katG S315T/R463L, gyrA A90V/S95T, rrs A1401G by CLSI method; assay type: functional
[16] = test system: Mycobacterium tuberculosis; test: Antimycobacterial activity against extensively drug-resistant Mycobacterium tuberculosis isolate 2911 horboring rpoB D516V, katG S315T/R463L, gyrA D94G/S95T/R128S/Y129C, rrs A1401G by CLSI method; assay type: functional
[17] = test system: Mycobacterium tuberculosis; test: Antimycobacterial activity against extensively drug-resistant Mycobacterium tuberculosis isolate 2474 obtained from sputum of patient at 2 ug/ml by Bactec MGIT960 modified proportion method; assay type: functional, organism-based
[18] = test system: Mycobacterium tuberculosis; test: Antimycobacterial activity against extensively drug-resistant Mycobacterium tuberculosis isolate 2301 horboring rpoB S531L, katG R463L/E217G, gyrA D94N/S95T, rrs A1401G by CLSI method; assay type: functional
[19] = test system: Mycobacterium tuberculosis; test: Antimycobacterial activity against extensively drug-resistant Mycobacterium tuberculosis isolate 2911 obtained from sputum of patient at 4 ug/ml by Bactec MGIT960 modified proportion method; assay type: functional, organism-based
[20] = test system: Mycobacterium tuberculosis; test: Antimycobacterial activity against extensively drug-resistant Mycobacterium tuberculosis isolate 2301 obtained from sputum of patient at 4 ug/ml by Bactec MGIT960 modified proportion method; assay type: functional, organism-based
[21] = test system: Mycobacterium tuberculosis; test: Antimycobacterial activity against extensively drug-resistant Mycobacterium tuberculosis isolate 625 obtained from sputum of patient at 4 ug/ml by Bactec MGIT960 modified proportion method; assay type: functional, organism-based
[22] = test system: Mycobacterium tuberculosis; test: Antimycobacterial activity against extensively drug-resistant Mycobacterium tuberculosis isolate 2474 obtained from sputum of patient at 4 ug/ml by Bactec MGIT960 modified proportion method; assay type: functional, organism-based
[23] = test system: Mycobacterium tuberculosis; test: Antimycobacterial activity against extensively drug-resistant Mycobacterium tuberculosis isolate 2403 obtained from sputum of patient at 4 ug/ml by Bactec MGIT960 modified proportion method; assay type: functional, organism-based
[24] = test system: Mycobacterium tuberculosis; test: Antimycobacterial activity against extensively drug-resistant Mycobacterium tuberculosis isolate 761 obtained from pus of patient at 4 ug/ml by Bactec MGIT960 modified proportion method; assay type: functional, organism-based
[25] = test system: Mycobacterium tuberculosis; test: Antimycobacterial activity against extensively drug-resistant Mycobacterium tuberculosis isolate 2474 obtained from sputum of patient at 1 ug/ml by Bactec MGIT960 modified proportion method; assay type: functional, organism-based
[26] = test system: Mycobacterium tuberculosis; test: Antimycobacterial activity against extensively drug-resistant Mycobacterium tuberculosis isolate 761 obtained from pus of patient at 1 ug/ml by Bactec MGIT960 modified proportion method; assay type: functional, organism-based
[27] = test system: Mycobacterium tuberculosis; test: Antimycobacterial activity against extensively drug-resistant Mycobacterium tuberculosis isolate 2301 obtained from sputum of patient at 1 ug/ml by Bactec MGIT960 modified proportion method; assay type: functional, organism-based
[28] = test system: Mycobacterium tuberculosis; test: Antimycobacterial activity against extensively drug-resistant Mycobacterium tuberculosis isolate 2403 obtained from sputum of patient at 1 ug/ml by Bactec MGIT960 modified proportion method; assay type: functional, organism-based
[29] = test system: Mycobacterium tuberculosis; test: Antimycobacterial activity against extensively drug-resistant Mycobacterium tuberculosis isolate 2911 obtained from sputum of patient at 1 ug/ml by Bactec MGIT960 modified proportion method; assay type: functional, organism-based
[30] = test system: Mycobacterium tuberculosis; test: Antimycobacterial activity against extensively drug-resistant Mycobacterium tuberculosis isolate 2301 obtained from sputum of patient at 0.1 ug/ml by Bactec MGIT960 modified proportion method; assay type: functional, organism-based
[31] = test system: Mycobacterium tuberculosis; test: Antimycobacterial activity against extensively drug-resistant Mycobacterium tuberculosis isolate 625 obtained from sputum of patient at 0.1 ug/ml by Bactec MGIT960 modified proportion method; assay type: functional, organism-based
[32] = test system: Mycobacterium tuberculosis; test: Antimycobacterial activity against extensively drug-resistant Mycobacterium tuberculosis isolate 2911 obtained from sputum of patient at 0.1 ug/ml by Bactec MGIT960 modified proportion method; assay type: functional, organism-based
[33] = test system: Mycobacterium tuberculosis; test: Antimycobacterial activity against extensively drug-resistant Mycobacterium tuberculosis isolate 2474 obtained from sputum of patient at 0.1 ug/ml by Bactec MGIT960 modified proportion method; assay type: functional, organism-based
[34] = test system: Mycobacterium tuberculosis; test: Antimycobacterial activity against extensively drug-resistant Mycobacterium tuberculosis isolate 2403 obtained from sputum of patient at 0.1 ug/ml by Bactec MGIT960 modified proportion method; assay type: functional, organism-based
[35] = test system: Mycobacterium tuberculosis; test: Antimycobacterial activity against extensively drug-resistant Mycobacterium tuberculosis isolate 761 obtained from pus of patient at 0.1 ug/ml by Bactec MGIT960 modified proportion method; assay type: functional, organism-based

With `NC(=O)c1cnccn1` the Activity [1] was “inactive”, the Activity [2] was “Active” and the Activity [3] was “inactive”. The Activity [4] was “inactive”, the Activity [5] was “inactive” and the Activity [6] was “inactive”.
With `C[C@H]1COc2c(N3CCN(C)CC3)c(F)cc3c(=O)c(C(=O)O)cn1c23` the Activity [7] was “inactive”, the Activity [8] was “inactive” and the Activity [9] was “inactive”. For the same molecule, the Activity [10] was “inactive”.
In the case of `CC1COc2c(N3CCN(C)CC3)c(F)cc3c(=O)c(C(=O)O)cn1c23` (stereo not drawn) [OFLOXACIN], the Activity [7] is reported as “inactive”, the MIC [11] is reported as 0.5 µg/mL (≈ 1.38 µM) and the MIC [12] is reported as 8 µg/mL (≈ 22.1 µM). For the same molecule, the Activity [8] was “inactive”, the MIC [13] was 16 µg/mL (≈ 44.3 µM) and the Activity [9] was “inactive”. For the same molecule, the Activity [10] was “inactive”, the Activity [14] was “inactive” and the MIC [15] was 16 µg/mL (≈ 44.3 µM). The MIC [16] was 8 µg/mL (≈ 22.1 µM), the Activity [17] was “inactive” and the MIC [18] was 8 µg/mL (≈ 22.1 µM).
With `NC[C@H]1O[C@H](O[C@H]2[C@H](O)[C@@H](O[C@H]3O[C@H](CO)[C@@H](O)[C@H](N)[C@H]3O)[C@H](N)C[C@@H]2N)[C@H](O)[C@@H](O)[C@@H]1O` [KANAMYCIN] the Activity [19] was “inactive”, the Activity [20] was “inactive” and the Activity [21] was “inactive”. For the same molecule, the MIC [11] was 2 µg/mL (≈ 4.13 µM), the MIC [12] was >16 µg/mL and the Activity [22] was “Active”. The MIC [13] was >16 µg/mL, the Activity [23] was “inactive” and the Activity [24] was “inactive”. For the same molecule, the MIC [15] was >16 µg/mL, the MIC [16] was >16 µg/mL and the MIC [18] was >16 µg/mL.
For `NCC[C@H](O)C(=O)N[C@@H]1C[C@H](N)[C@@H](O[C@H]2O[C@H](CN)[C@@H](O)[C@H](O)[C@H]2O)[C@H](O)[C@H]1O[C@H]1O[C@H](CO)[C@@H](O)[C@H](N)[C@H]1O` [AMIKACIN], the Activity [25] was “inactive”, the Activity [26] was “inactive” and the MIC [11] was 0.5 µg/mL (≈ 0.854 µM). For the same molecule, the MIC [12] was >16 µg/mL, the Activity [27] was “inactive” and the MIC [13] was 16 µg/mL (≈ 27.3 µM). For the same molecule, the Activity [28] was “inactive”, the MIC [15] was >16 µg/mL and the MIC [16] was >16 µg/mL. For the same molecule, the MIC [18] was >16 µg/mL and the Activity [29] was “inactive”.
`NNC(=O)c1ccncc1` [ISONIAZID] was tested, and the Activity [30] was “inactive”, the MIC [11] was 0.25 µg/mL (≈ 1.82 µM) and the MIC [12] was 1 µg/mL (≈ 7.29 µM). The MIC [13] was 4 µg/mL (≈ 29.2 µM), the Activity [31] was “inactive” and the Activity [32] was “inactive”. The Activity [33] was “inactive”, the Activity [34] was “inactive” and the MIC [15] was >16 µg/mL. For the same molecule, the MIC [16] was 4 µg/mL (≈ 29.2 µM), the Activity [35] was “inactive” and the MIC [18] was 0.5 µg/mL (≈ 3.65 µM).
In the case of `N[C@@H]1CONC1=O` [CYCLOSERINE], the MIC [11] is reported as 8 µg/mL (≈ 78.4 µM), the MIC [12] is reported as 16 µg/mL (≈ 157 µM) and the MIC [13] is reported as >16 µg/mL. It also gave an MIC [15] of 16 µg/mL (≈ 157 µM), an MIC [16] of 16 µg/mL (≈ 157 µM) and an MIC [18] of 16 µg/mL (≈ 157 µM).
